Measurements: publication PMC9551036, “A selective and orally bioavailable VHL-recruiting PROTAC achieves SMARCA2 degradation in vivo” (Nature Communications, 2022)
Values joined by “and” are separate entries in the source; they are usually repeats but may differ in a detail not shown here. Identical values can stand only once. Like-named read-outs stand apart in the source and are kept apart here.

Experiments:
[1] = tested on: panel of cell lines (A549, HCC-364, HCC-515, HCC4006, KYSE-30, LU99, LXFA_629L, LXFA_923L, LXFL_529L, LXFL_1121L, MP38, NCI-H23, NCI-H1355, OV-90, SK-MEL-5 …); assay: Cell viability assay (CellTiter Glo) in a panel of cell lines; format: cell-based, human;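 for % Viability: percent of DMSO-treated control cells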
Procedure: 500–2000 cells were seeded in white, clear bottom 96-well plates (Corning or Perkin Elmer) in 180–200 µl medium per well. The next day, compounds were added using a digital dispenser and a T0 sample was measured for reference. Cells were incubated for 144–192 h, and viability (luminescence) was measured using CellTiter Glo or CellTiter Glo 2.0 (Promega) according to manufacturer’s instructions after equilibrating cells and reagents at room temperature and 10–20 min incubation time while shaking.

KRT80 mRNA = assay: qPCR for KRT80 mRNA levels in A549 and NCI-H1568 cells; format: cell-based, human; details: for EC50: Homo sapiens
Procedure: 350,000–500,000 cells were seeded in 6-well plates and compounds were added the next day at the indicated concentrations after pre-dilution in medium. Cells were incubated for 18 h, harvested, and RNA was extracted using the RNeasy Mini Kit (Qiagen) according to manufacturer’s instructions. A DNAse digestion step was included. 1 µg RNA was used for cDNA synthesis with the SuperScript VILO cDNA synthesis kit (Invitrogen) according to manufacturer’s instructions. TAQMAN qPCR was then performed using the QuantiTect Multiplex PCR kit (Qiagen) with probes for KRT80 (Hs01372365_m1, Applied Biosystems) and human GAPDH as endogenous control (4326317E, VIC/MGB probe, Primer Limited) for normalisation in a duplex assay over 45 cycles with 100 ng cDNA input. […] Curves were fitted using a 4-parametric logistic model.

Question: Cc1ncsc1-c1ccc(C(CCC(C)CCN2CCC(c3ccc4c(c3)n(C3CCCC3)c3nc(=O)c5c(Br)cccc5n43)CC2)NC(=O)C2CC(O)CN2C(=O)C(NC(=O)C2(F)CC2)C(C)(C)C)cc1 (centres unmarked) [ACBI2] was tested. Which “% Viability” value ([1]; HCC-515, log10 conc -8 mol/l) did it give?
Answer: Its value is 34.5235% and 34.7052%.

Question: What about the “% Viability” value ([1]; HCC-515, log10 conc -8.50031 mol/l) of the same molecule?
Answer: The value was 51.5226% and 47.9218%.

Question: What about the “HillSlope (viability)” value ([1]; KYSE-30) of the same molecule?
Answer: The value was -1.122.

Question: What about the “% Viability” value ([1]; KYSE-30, log10 conc -7.10735 mol/l) of the same molecule?
Answer: Its value is 99.6818% and 96.2107%.

Question: What about the “% Viability” value ([1]; KYSE-30, log10 conc -8.31158 mol/l) of the same molecule?
Answer: Its value is 107.107% and 103.099%.

Question: And the “HillSlope (viability)” value ([1]; LU99)?
Answer: Its value is -1.519.

Question: And the “% Viability” value ([1]; LU99, log10 conc -7.10735 mol/l)?
Answer: The value was 81.59% and 77.7555%.

Question: What about the “% Viability” value ([1]; LU99, log10 conc -8.31158 mol/l) of the same molecule?
Answer: Its value is 123.387% and 114.143%.

Question: And the “HillSlope (viability)” value ([1]; LXFA_629L)?
Answer: Its value is -0.7355.

Question: What about the “% Viability” value ([1]; LXFA_629L, log10 conc -7 mol/l) of the same molecule?
Answer: The value was 28.2712% and 27.4037%.

Question: What about the “% Viability” value ([1]; LXFA_629L, log10 conc -7.50031 mol/l) of the same molecule?
Answer: The value was 41.2713% and 34.5184%.

Question: What about the “% Viability” value ([1]; LXFA_629L, log10 conc -8 mol/l) of the same molecule?
Answer: The value was 57.9035% and 54.0045%.

Question: And the “% Viability” value ([1]; LXFA_629L, log10 conc -8.50031 mol/l)?
Answer: Its value is 89.2294% and 82.1746%.

Question: And the “HillSlope (viability)” value ([1]; LXFA_923L)?
Answer: The value was -0.4788.

Question: What about the “% Viability” value ([1]; LXFA_923L, log10 conc -7.50031 mol/l) of the same molecule?
Answer: The value was 31.729% and 41.6954%.

Question: And the “% Viability” value ([1]; LXFA_923L, log10 conc -8 mol/l)?
Answer: The value was 41.6215% and 47.8343%.

Question: And the “% Viability” value ([1]; LXFA_923L, log10 conc -8.50031 mol/l)?
Answer: The value was 63.1043% and 68.2132%.

Question: What about the “HillSlope (viability)” value ([1]; LXFL_529L) of the same molecule?
Answer: Its value is -0.4813.

Question: And the “% Viability” value ([1]; LXFL_529L, log10 conc -7.50031 mol/l)?
Answer: Its value is 17.7092% and 18.3663%.

Question: And the “% Viability” value ([1]; LXFL_529L, log10 conc -8 mol/l)?
Answer: Its value is 23.2341% and 22.4794%.

Question: And the “% Viability” value ([1]; LXFL_529L, log10 conc -8.50031 mol/l)?
Answer: Its value is 25.5623% and 26.9316%.

Question: And the “HillSlope (viability)” value ([1]; LXFL_1121L)?
Answer: The value was -1.483.

Question: And the “% Viability” value ([1]; LXFL_1121L, log10 conc -7.50031 mol/l)?
Answer: Its value is 92.1257% and 100.242%.

Question: What about the “% Viability” value ([1]; LXFL_1121L, log10 conc -8 mol/l) of the same molecule?
Answer: Its value is 96.5968% and 112.339%.

Question: And the “% Viability” value ([1]; LXFL_1121L, log10 conc -8.50031 mol/l)?
Answer: The value was 103.275% and 116.726%.

Question: What about the “HillSlope (viability)” value ([1]; MP38) of the same molecule?
Answer: Its value is -1.603.

Question: What about the “% Viability” value ([1]; MP38, log10 conc -7.50031 mol/l) of the same molecule?
Answer: Its value is 10.4737% and 10.5264%.

Question: What about the “% Viability” value ([1]; MP38, log10 conc -8 mol/l) of the same molecule?
Answer: The value was 48.5822% and 44.1126%.

Question: What about the “% Viability” value ([1]; MP38, log10 conc -8.50031 mol/l) of the same molecule?
Answer: The value was 84.8854% and 80.6261%.

Question: And the “HillSlope (viability)” value ([1]; NCI-H23)?
Answer: The value was -0.9596.

Question: And the “% Viability” value ([1]; NCI-H23, log10 conc -7.10735 mol/l)?
Answer: Its value is 77.4555% and 94.2831%.

Question: What about the “% Viability” value ([1]; NCI-H23, log10 conc -8.31158 mol/l) of the same molecule?
Answer: The value was 93.614% and 103.354%.

Question: And the “HillSlope (viability)” value ([1]; NCI-H1355)?
Answer: Its value is -1.475.

Question: What about the “% Viability” value ([1]; NCI-H1355, log10 conc -8.31158 mol/l) of the same molecule?
Answer: The value was 91.2593% and 85.8715%.

Question: What about the “HillSlope (viability)” value ([1]; OV-90) of the same molecule?
Answer: The value was -0.9956.

Question: And the “% Viability” value ([1]; OV-90, log10 conc -7.10735 mol/l)?
Answer: Its value is 57.2489% and 75.2258%.

Question: What about the “% Viability” value ([1]; OV-90, log10 conc -8.31158 mol/l) of the same molecule?
Answer: Its value is 97.3183% and 109.838%.

Question: And the “HillSlope (viability)” value ([1]; SK-MEL-5)?
Answer: The value was -1.006.

Question: What about the “% Viability” value ([1]; SK-MEL-5, log10 conc -7.10735 mol/l) of the same molecule?
Answer: Its value is 3.91% and 3.091%.

Question: And the “% Viability” value ([1]; SK-MEL-5, log10 conc -8.31158 mol/l)?
Answer: The value was 29.6092% and 31.0459%.

Question: What about the “HillSlope (viability)” value ([1]; TOV-112D) of the same molecule?
Answer: Its value is -1.255.

Question: What about the “% Viability” value ([1]; TOV-112D, log10 conc -7.10735 mol/l) of the same molecule?
Answer: Its value is 105.246% and 100.431%.

Question: What about the “% Viability” value ([1]; TOV-112D, log10 conc -8.31158 mol/l) of the same molecule?
Answer: The value was 103.581% and 98.4682%.

Question: What about the “KRT80 mRNA levels” value (KRT80 mRNA; 18 h treatment) of the same molecule?
Answer: The value was “decreased mRNA levels of KRT80”.

Question: And the “Bottom (% KRT80 mRNA, four-parameter fit)” value (KRT80 mRNA; A549)?
Answer: Its value is 1.487%.

Question: And the “HillSlope (KRT80 mRNA)” value (KRT80 mRNA; A549)?
Answer: Its value is -1.195.

Question: What about the “Top (% KRT80 mRNA, four-parameter fit)” value (KRT80 mRNA; A549) of the same molecule?
Answer: The value was 88.72%.

Question: What about the “% KRT80 mRNA” value (KRT80 mRNA; A549, conc 1e-10 mol/l) of the same molecule?
Answer: Its value is 68.3704%.

Question: And the “% KRT80 mRNA” value (KRT80 mRNA; A549, conc 3.2e-10 mol/l)?
Answer: Its value is 113.907%.

Question: And the “% KRT80 mRNA” value (KRT80 mRNA; A549, conc 1e-9 mol/l)?
Answer: Its value is 83.7736%.

Question: What about the “% KRT80 mRNA” value (KRT80 mRNA; A549, conc 1.6e-9 mol/l) of the same molecule?
Answer: The value was 68.0813%.

Question: What about the “% KRT80 mRNA” value (KRT80 mRNA; A549, conc 8e-9 mol/l) of the same molecule?
Answer: Its value is 32.1733%.

Question: And the “% KRT80 mRNA” value (KRT80 mRNA; A549, conc 1e-8 mol/l)?
Answer: Its value is 59.5378%.

Question: What about the “% KRT80 mRNA” value (KRT80 mRNA; A549, conc 4e-8 mol/l) of the same molecule?
Answer: The value was 6.155%.

Question: What about the “% KRT80 mRNA” value (KRT80 mRNA; A549, conc 1e-7 mol/l) of the same molecule?
Answer: The value was 5.176%.

Question: What about the “% KRT80 mRNA” value (KRT80 mRNA; A549, conc 2e-7 mol/l) of the same molecule?
Answer: The value was 3.074%.

Question: And the “% KRT80 mRNA” value (KRT80 mRNA; A549, conc 1e-6 mol/l)?
Answer: The value was 3.879% and 3.0631%.

Question: And the EC50 (KRT80 mRNA; A549, read-out: EC50 (KRT80 mRNA))?
Answer: The EC50 was 8.27 nM.

Question: And the EC50 (KRT80 mRNA; A549, read-out: LogEC50 (KRT80 mRNA) (converted))?
Answer: The EC50 was 8.26 nM.

Question: And the EC50 (KRT80 mRNA; NCI-H1568, read-out: EC50 (KRT80 mRNA))?
Answer: The EC50 was 9.77 nM.

Question: And the EC50 (KRT80 mRNA; NCI-H1568, read-out: LogEC50 (KRT80 mRNA) (converted))?
Answer: Its EC50 is 9.77 nM.

Question: And the “Bottom (% KRT80 mRNA, four-parameter fit)” value (KRT80 mRNA; NCI-H1568)?
Answer: The value was 16.16%.

Question: And the “Top (% KRT80 mRNA, four-parameter fit)” value (KRT80 mRNA; NCI-H1568)?
Answer: Its value is 89.57%.

Question: What about the “% KRT80 mRNA” value (KRT80 mRNA; NCI-H1568, conc 1e-10 mol/l) of the same molecule?
Answer: Its value is 84.6925%.

Question: And the “% KRT80 mRNA” value (KRT80 mRNA; NCI-H1568, conc 1.6e-9 mol/l)?
Answer: Its value is 88.1629%.

Question: And the “% KRT80 mRNA” value (KRT80 mRNA; NCI-H1568, conc 8e-9 mol/l)?
Answer: Its value is 95.8588%.

Question: What about the “% KRT80 mRNA” value (KRT80 mRNA; NCI-H1568, conc 1e-8 mol/l) of the same molecule?
Answer: Its value is 27.1635%.

Question: And the “% KRT80 mRNA” value (KRT80 mRNA; NCI-H1568, conc 4e-8 mol/l)?
Answer: Its value is 13.5152%.

Question: What about the “% KRT80 mRNA” value (KRT80 mRNA; NCI-H1568, conc 1e-7 mol/l) of the same molecule?
Answer: The value was 10.7775%.

Question: What about the “% KRT80 mRNA” value (KRT80 mRNA; NCI-H1568, conc 2e-7 mol/l) of the same molecule?
Answer: Its value is 11.1934%.

Question: What about the “% KRT80 mRNA” value (KRT80 mRNA; NCI-H1568, conc 1e-6 mol/l) of the same molecule?
Answer: The value was 17.4529% and 27.8788%.
